Experimental data from patent US12077503B2, “Substituted cyclic amides and their use as herbicides” (FMC CORPORATION, priority 2015, dated 2024).

Legend:
Type in all cases: in vivo
[1] = tested on: barnyardgrass (Echinochloa crus-galli); test: Test A preemergence; conditions: for Plant response rating, Barnyardgrass: 125 g ai/ha
Excerpt: (§1) Seeds of plant species selected from barnyardgrass (Echinochloa crus-galli), Kochia (Kochia scoparia), ragweed (common ragweed, Ambrosia elatior), ryegrass, Italian (Italian ryegrass, Lolium multiflorum), crabgrass, large (Digitaria sanguinalis), giant foxtail (Setaria faberii), green foxtail (Setaria viridis), morningglory (Ipomoea spp.), pigweed (Amaranthus retroflexus), velvetleaf (Abutilon theophrasti), wheat (Triticum aestivum), and corn (Zea mays) were planted into a blend of loam soil and sand and treated preemergence with a directed soil spray using test chemicals formulated in anon-phytotoxic solvent mixture which included a surfactant.
(§2) At the same time, plants selected from these crop and weed species and also blackgrass (Alopecurus myosuroides), and Galium (catchweed bedstraw, Galium aparine) were planted in pots containing the same blend of loam soil and sand and treated with postemergence applications of test chemicals formulated in the same manner. Plants ranged in height from 2 to 10 cm and were in the one- to two-leaf stage for the postemergence treatment. Treated plants and untreated controls were maintained in a greenhouse for approximately 10 d, after which time all treated plants were compared to untreated controls and visually evaluated for injury. Plant response ratings, summarized in Table A, are based on a 0 to 100 scale where 0 is no effect and 100 is complete control. A dash (-) response means no test result.

[2] = tested on: ragweed (common ragweed, Ambrosia elatior); test: Test A preemergence; conditions: for Plant response rating, Ragweed: 125 g ai/ha
Excerpt: as §1, §2

[3] = tested on: giant foxtail (Setaria faberii); test: Test A preemergence; conditions: for Plant response rating, Foxtail, Giant: 125 g ai/ha
Excerpt: as §1, §2

[4] = tested on: ryegrass, Italian (Italian ryegrass, Lolium multiflorum); test: Test A preemergence; conditions: for Plant response rating, Ryegrass, Italian: 125 g ai/ha
Excerpt: as §1, §2

Kochia (Kochia scoparia) [5] = test: Test A preemergence; conditions: for Plant response rating, Kochia: 125 g ai/ha
Excerpt: as §1, §2

[6] = tested on: pigweed (Amaranthus retroflexus); test: Test A preemergence; conditions: for Plant response rating, Pigweed: 125 g ai/ha
Excerpt: as §1, §2

[7] = tested on: barnyardgrass (Echinochloa crus-galli); test: Test A postemergence
Excerpt: as §1, §2

[8] = tested on: ragweed (common ragweed, Ambrosia elatior); test: Test A postemergence
Excerpt: as §1, §2

[9] = tested on: wheat (Triticum aestivum); test: Test A postemergence
Excerpt: as §1, §2

[10] = tested on: giant foxtail (Setaria faberii); test: Test A postemergence
Excerpt: as §1, §2

[11] = tested on: Galium (catchweed bedstraw, Galium aparine); test: Test A postemergence
Excerpt: as §1, §2

[12] = tested on: ryegrass, Italian (Italian ryegrass, Lolium multiflorum); test: Test A postemergence
Excerpt: as §1, §2

Kochia (Kochia scoparia) [13] = test: Test A postemergence
Excerpt: as §1, §2

corn (Zea mays) = test: Test A postemergence
Excerpt: as §1, §2

[14] = tested on: pigweed (Amaranthus retroflexus); test: Test A postemergence
Excerpt: as §1, §2

[15] = tested on: blackgrass (Alopecurus myosuroides); test: Test A postemergence
Excerpt: as §1, §2

[16] = tested on: sedge, umbrella (small-flower umbrella sedge, Cyperus difformis); test: Test B flooded paddy test; conditions: Flood, 250 g ai/ha; 0 to 100 scale where 0 is no effect and 100 is complete control; 13 to 15 d
Description: (§3) Plant species in the flooded paddy test selected from rice (Oryra sativa), sedge, umbrella (small-flower umbrella sedge, Cyperus difformis), ducksalad (Heteranthera limosa), and barnyardgrass (Echinochloa crus-galli) were grown to the 2-leaf stage for testing. At time of treatment, test pots were flooded to 3 cm above the soil surface, treated by application of test compounds directly to the paddy water, and then maintained at that water depth for the duration of the test. Treated plants and controls were maintained in a greenhouse for 13 to 15 d, after which time all species were compared to controls and visually evaluated. Plant response ratings, summarized in Table B, are based on a scale of 0 to 100 where 0 is no effect and 100 is complete control. A dash (-) response means no test result.

[17] = tested on: barnyardgrass (Echinochloa crus-galli); test: Test B flooded paddy test; conditions: Flood, 250 g ai/ha; 0 to 100 scale where 0 is no effect and 100 is complete control; 13 to 15 d
Description: as §3

[18] = tested on: ducksalad (Heteranthera limosa); test: Test B flooded paddy test; conditions: Flood, 250 g ai/ha; 0 to 100 scale where 0 is no effect and 100 is complete control; 13 to 15 d
Description: as §3

rice (Oryra sativa) = test: Test B flooded paddy test; conditions: Flood, 250 g ai/ha; 0 to 100 scale where 0 is no effect and 100 is complete control; 13 to 15 d
Description: as §3

[19] = preemergence, 0 to 100 scale (0 no effect, 100 complete control)
[20] = Preemergence, 500 g ai/ha, 0 is no effect, 100 is complete control
[21] = 500 g ai/ha, postemergence, 0 to 100 scale, 0 no effect, 100 complete control
[22] = Postemergence, 125 g ai/ha, visual injury, 0 to 100 scale (0 no effect, 100 complete control), approx. 10 d
[23] = Preemergence, visual injury after approximately 10 d, 0 to 100 scale where 0 is no effect and 100 is complete control
[24] = Preemergence, 500 g ai/ha, visual injury approx. 10 d
[25] = 125 g ai/ha, postemergence, visual injury rating on 0 to 100 scale (0 no effect, 100 complete control), approx. 10 d
[26] = Postemergence, 500 g ai/ha, 0 to 100 scale where 0 is no effect and 100 is complete control

SMILES: O=C1NCC(c2ccccc2-c2ccccc2)C1C(=O)Nc1cccc(F)c1F (racemic) [Compound 379]
- Plant response rating, Barnyardgrass [1, 19]: 0
- Barnyardgrass plant response rating (0 to 100 scale) [1, 20]: 30
- Plant response rating, Ragweed [2, 19]: 0
- Ragweed plant response rating (0 to 100 scale) [2, 20]: 0
- Plant response rating, Foxtail, Giant [3, 19]: 0
- Foxtail, Giant plant response rating (0 to 100 scale) [3, 20]: 40
- Plant response rating, Ryegrass, Italian [4, 19]: 0
- Ryegrass, Italian plant response rating (0 to 100 scale) [4, 20]: 0
- Plant response rating, Kochia (Kochia (Kochia scoparia) [5]; [19]): 0
- Kochia plant response rating (0 to 100 scale) (Kochia (Kochia scoparia) [5]; [20]): 0
- Plant response rating, Pigweed [6, 19]: 0
- Pigweed plant response rating (0 to 100 scale) [6, 20]: 0
- Plant response rating, Barnyardgrass [7, 21]: 50
- Plant response rating, Barnyardgrass [7, 22]: 0
- Plant response rating, Ragweed [8, 21]: 0
- Plant response rating, Ragweed [8, 22]: 0
- Plant response rating, Wheat [9, 21]: 0
- Plant response rating, Wheat [9, 22]: 0
- Plant response rating, Foxtail, Giant [10, 21]: 20
- Plant response rating, Foxtail, Giant [10, 22]: 0
- Plant response rating, Galium [11, 21]: 0
- Plant response rating, Galium [11, 22]: 0
- Plant response rating, Ryegrass, Italian [12, 21]: 0
- Plant response rating, Ryegrass, Italian [12, 22]: 0
- Plant response rating, Kochia (Kochia (Kochia scoparia) [13]; [21]): 0
- Plant response rating, Kochia (Kochia (Kochia scoparia) [13]; [22]): 0
- Plant response rating, Corn (corn (Zea mays); [21]): 0
- Plant response rating, Corn (corn (Zea mays); [22]): 0
- Plant response rating, Pigweed [14, 21]: 0
- Plant response rating, Pigweed [14, 22]: 0
- Plant response rating, Blackgrass [15, 21]: 0
- Plant response rating, Blackgrass [15, 22]: 0
- Plant response rating, Sedge, Umbrella [16]: 0
- Plant response rating, Barnyardgrass [17]: 0
- Plant response rating, Ducksalad [18]: 0
- Plant response rating, Rice (rice (Oryra sativa)): 0

SMILES: CS(=O)(=O)c1ccccc1NC(=O)C1C(=O)NCC1c1ccc(C2CC2)cc1 (racemic) [Compound 502]
- Plant response rating, Barnyardgrass [1, 23]: 0
- Barnyardgrass plant response rating (0 to 100 scale, 0 is no effect, 100 is complete control) [1, 24]: 60
- Plant response rating, Ragweed [2, 23]: 0
- Ragweed plant response rating (0 to 100 scale, 0 is no effect, 100 is complete control) [2, 24]: 50
- Plant response rating, Foxtail, Giant [3, 23]: 80
- Foxtail, Giant plant response rating (0 to 100 scale, 0 is no effect, 100 is complete control) [3, 24]: 90
- Plant response rating, Ryegrass, Italian [4, 23]: 0
- Ryegrass, Italian plant response rating (0 to 100 scale, 0 is no effect, 100 is complete control) [4, 24]: 30
- Plant response rating, Kochia (Kochia (Kochia scoparia) [5]; [23]): 0
- Kochia plant response rating (0 to 100 scale, 0 is no effect, 100 is complete control) (Kochia (Kochia scoparia) [5]; [24]): 70
- Plant response rating, Pigweed [6, 23]: 0
- Pigweed plant response rating (0 to 100 scale, 0 is no effect, 100 is complete control) [6, 24]: 30
- Barnyardgrass plant response rating [7, 25]: 0
- Plant response rating, Barnyardgrass [7, 26]: 60
- Ragweed plant response rating [8, 25]: 0
- Plant response rating, Ragweed [8, 26]: 0
- Wheat plant response rating [9, 25]: 0
- Plant response rating, Wheat [9, 26]: 0
- Foxtail, Giant plant response rating [10, 25]: 20
- Plant response rating, Foxtail, Giant [10, 26]: 50
- Galium plant response rating [11, 25]: 20
- Plant response rating, Galium [11, 26]: 50
- Ryegrass, Italian plant response rating [12, 25]: 0
- Plant response rating, Ryegrass, Italian [12, 26]: 30
- Kochia plant response rating (Kochia (Kochia scoparia) [13]; [25]): 0
- Plant response rating, Kochia (Kochia (Kochia scoparia) [13]; [26]): 20
- Corn plant response rating (corn (Zea mays); [25]): 0
- Plant response rating, Corn (corn (Zea mays); [26]): 30
- Pigweed plant response rating [14, 25]: 0
- Plant response rating, Pigweed [14, 26]: 0
- Blackgrass plant response rating [15, 25]: 0
- Plant response rating, Blackgrass [15, 26]: 20
- Plant response rating, Sedge, Umbrella [16]: 0
- Plant response rating, Barnyardgrass [17]: 0
- Plant response rating, Ducksalad [18]: 70
- Plant response rating, Rice (rice (Oryra sativa)): 0
